Laboratory results from publication PMC12568646, “Enzymatic combinatorial synthesis of E-64 and related cysteine protease inhibitors” (Nature Chemical Biology, 2025).

Tests used:
papain = molecular target: T1, papain (Carica papaya, UniProt P00784); experiment: X-ray co-crystal structure; type: binding; details: covalent, active-site Cys25
T1 construct: mature native enzyme, twice-crystallized from papaya latex (Sigma)

cathepsin B = molecular target: T2, cathepsin B (Homo sapiens, UniProt P07858); experiment: fluorogenic Z-Phe-Arg-AMC assay; type: biochemical; details: 40 μM Z-Phe-Arg-AMC, citrate phosphate pH 5.5, 5 mM DTT, 37 °C; covalent, irreversible
T2 construct: gene CTSB

Cp1B = system: T3, Cp1B; experiment: X-ray crystal structure, […] Å; parameters: species or system Aspergillus flavus; details: ATP-binding site; crystal set up with ATP, MgCl2 and (±)-t-ES; MES also bound
T3 construct: full-length intron-free ORF in pET28a (pML8010), 6xHis-tagged, expressed in E. coli BL21(DE3); domains span residues 5-502

Cp1D = molecular target: T4, Cp1D (Aspergillus flavus, UniProt A0A7U2QR00); experiment: LC-MS of amide product formation; type: biochemical; details: 5 mM agmatine, 10 mM ATP, 10 mM MgCl2, 50 mM sodium phosphate pH 8.0, 30 °C
T4 construct: gene F9C07_2276917; full-length intron-free ORF in pET28a, 6xHis-tagged, expressed in E. coli BL21(DE3)
T4 sequence (A0A7U2QR00 1-463): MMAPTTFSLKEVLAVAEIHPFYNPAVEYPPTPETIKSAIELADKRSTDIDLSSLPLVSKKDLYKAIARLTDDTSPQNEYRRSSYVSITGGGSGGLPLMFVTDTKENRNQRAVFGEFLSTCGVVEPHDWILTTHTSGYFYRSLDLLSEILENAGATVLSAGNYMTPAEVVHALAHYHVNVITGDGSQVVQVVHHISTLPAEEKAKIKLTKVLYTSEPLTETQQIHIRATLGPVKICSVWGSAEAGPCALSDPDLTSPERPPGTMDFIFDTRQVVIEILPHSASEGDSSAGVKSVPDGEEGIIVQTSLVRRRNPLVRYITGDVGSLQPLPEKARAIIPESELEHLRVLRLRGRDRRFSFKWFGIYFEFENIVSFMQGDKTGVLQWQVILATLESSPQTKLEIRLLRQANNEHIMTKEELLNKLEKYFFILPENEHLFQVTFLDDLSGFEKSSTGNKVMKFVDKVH

T1 sequence (P00784 134-345): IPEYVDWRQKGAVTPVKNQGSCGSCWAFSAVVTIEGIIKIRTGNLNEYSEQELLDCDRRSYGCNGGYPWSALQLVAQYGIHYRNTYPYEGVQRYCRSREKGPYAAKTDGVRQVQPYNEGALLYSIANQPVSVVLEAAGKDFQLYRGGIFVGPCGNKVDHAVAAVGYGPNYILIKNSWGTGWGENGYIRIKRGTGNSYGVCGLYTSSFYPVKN

NCCCCCCCCNC(=O)[C@@H](NC(=O)[C@H]1O[C@@H]1C(=O)O)C1CCC1 [(2S,3S)-t-ES-a9-b7]
X-ray co-crystal structure (papain): (2S,3S)-t-ES-a9-b7 was observed to be bound covalently to the active site cysteine
IC50 (cathepsin B): 14 ± 1.1 nM

Nc1ncnc2c1ncn2[C@@H]1O[C@H](CO)[C@@H](O)[C@H]1O [adenosine]
X-ray crystal structure, 2.7 Å (Cp1B): crystal structure of Cp1B complexed with adenosine and 2-morpholinoethanesulfonic acid (MES) was determined

CC[C@H](C)[C@H](NC(=O)[C@@H]1O[C@H]1C(=O)O)C(=O)O [(2R,3R)-t-ES-L-Ile]
KM (apparent) (Cp1D): much more efficient compared to that toward (2R,3R)-t-ES-L-Ile
